Laboratory results taken from ChEMBL document CHEMBL4414672, “Synthesis of certain benzothieno[3,2-d]pyrimidine derivatives as a selective SIRT2 inhibitors” (Eur J Med Chem, 2020).

How the values were obtained:
Type in all cases: functional
SW-620 = assay: Growth inhibition of human SW620 cells at 10^-5 M incubated for 48 hrs by sulforhodamine B assay; details: SW-620, 48 h, read-out: GI
NCI-H460 = assay: Growth inhibition of human NCI-H460 cells at 10^-5 M incubated for 48 hrs by sulforhodamine B assay; details: NCI-H460, 48 h, read-out: GI
HOP-62 = assay: Growth inhibition of human HOP62 cells at 10^-5 M incubated for 48 hrs by sulforhodamine B assay; details: HOP-62, 48 h, read-out: GI
CAKI-1 = assay: Growth inhibition of human Caki1 cells at 10^-5 M incubated for 48 hrs by sulforhodamine B assay; details: CAKI-1, 48 h, read-out: GI
TK-10 = assay: Growth inhibition of human TK10 cells at 10^-5 M incubated for 48 hrs by sulforhodamine B assay; details: TK-10, 48 h, read-out: GI
MOLT-4 = assay: Growth inhibition of human MOLT4 cells at 10^-5 M incubated for 48 hrs by sulforhodamine B assay; details: MOLT-4, 48 h, read-out: GI
SF-295 = assay: Growth inhibition of human SF295 cells at 10^-5 M incubated for 48 hrs by sulforhodamine B assay; details: SF-295, 48 h, read-out: GI
IGROV-1 = assay: Growth inhibition of human IGROV1 cells at 10^-5 M incubated for 48 hrs by sulforhodamine B assay; details: IGROV-1, 48 h, read-out: GI
SK-OV-3 = assay: Growth inhibition of human SKOV3 cells at 10^-5 M incubated for 48 hrs by sulforhodamine B assay; details: SK-OV-3, 48 h, read-out: GI
A549 = assay: Growth inhibition of human A549/ATCC cells at 10^-5 M incubated for 48 hrs by sulforhodamine B assay; details: A549, 48 h, read-out: GI
HCT-116 = assay: Growth inhibition of human HCT116 cells at 10^-5 M incubated for 48 hrs by sulforhodamine B assay; details: HCT-116, 48 h, read-out: GI
SR = assay: Growth inhibition of human SR cells at 10^-5 M incubated for 48 hrs by sulforhodamine B assay; details: read-out: GI
HCT-15 = assay: Growth inhibition of human HCT15 cells at 10^-5 M incubated for 48 hrs by sulforhodamine B assay; details: HCT-15, 48 h, read-out: GI
SK-MEL-5 = assay: Growth inhibition of human SK-MEL-5 cells at 10^-5 M incubated for 48 hrs by sulforhodamine B assay; details: SK-MEL-5, 48 h, read-out: GI
DU-145 = assay: Growth inhibition of human DU145 cells at 10^-5 M incubated for 48 hrs by sulforhodamine B assay; details: DU-145, 48 h, read-out: GI
RXF 393 = assay: Growth inhibition of human RXF393 cells at 10^-5 M incubated for 48 hrs by sulforhodamine B assay; details: RXF 393, 48 h, read-out: GI
U-251 = assay: Growth inhibition of human U251 cells at 10^-5 M incubated for 48 hrs by sulforhodamine B assay; details: U-251, 48 h, read-out: GI
UACC-62 = assay: Growth inhibition of human UACC62 cells at 10^-5 M incubated for 48 hrs by sulforhodamine B assay; details: UACC-62, 48 h, read-out: GI
LOX IMVI = assay: Growth inhibition of human LOXIMVI cells at 10^-5 M incubated for 48 hrs by sulforhodamine B assay; details: read-out: GI
UACC-257 = assay: Growth inhibition of human UACC257 cells at 10^-5 M incubated for 48 hrs by sulforhodamine B assay; details: UACC-257, 48 h, read-out: GI
HL-60(TB) = assay: Growth inhibition of human HL-60(TB) cells at 10^-5 M incubated for 48 hrs by sulforhodamine B assay; details: HL-60, 48 h, read-out: GI
SNB-75 = assay: Growth inhibition of human SNB75 cells at 10^-5 M incubated for 48 hrs by sulforhodamine B assay; details: SNB-75, 48 h, read-out: GI
MDA-MB-435 = assay: Growth inhibition of human MDA-MB-435 cells at 10^-5 M incubated for 48 hrs by sulforhodamine B assay; details: MDA-MB-435, 48 h, read-out: GI
HCC 2998 = assay: Growth inhibition of human HCC2998 cells at 10^-5 M incubated for 48 hrs by sulforhodamine B assay; details: HCC 2998, 48 h, read-out: GI
786-0 = assay: Growth inhibition of human 786-0 cells at 10^-5 M incubated for 48 hrs by sulforhodamine B assay; details: 786-0, 48 h, read-out: GI
SF-539 = assay: Growth inhibition of human SF539 cells at 10^-5 M incubated for 48 hrs by sulforhodamine B assay; details: SF-539, 48 h, read-out: GI
Hs-578T = assay: Growth inhibition of human Hs 578T cells at 10^-5 M incubated for 48 hrs by sulforhodamine B assay; details: read-out: GI
HOP-92 = assay: Growth inhibition of human HOP92 cells at 10^-5 M incubated for 48 hrs by sulforhodamine B assay; details: HOP-92, 48 h, read-out: GI
EKVX = assay: Growth inhibition of human EKVX cells at 10^-5 M incubated for 48 hrs by sulforhodamine B assay; details: read-out: GI
COLO 205 = assay: Growth inhibition of human COLO205 cells at 10^-5 M incubated for 48 hrs by sulforhodamine B assay; details: COLO 205, 48 h, read-out: GI
M14 = assay: Growth inhibition of human M14 cells at 10^-5 M incubated for 48 hrs by sulforhodamine B assay; details: M14, 48 h, read-out: GI
OVCAR-8 = assay: Growth inhibition of human OVCAR8 cells at 10^-5 M incubated for 48 hrs by sulforhodamine B assay; details: OVCAR-8, 48 h, read-out: GI
MDA-MB-231 = assay: Growth inhibition of human MDA-MB-231 cells at 10^-5 M incubated for 48 hrs by sulforhodamine B assay; details: MDA-MB-231, 48 h, read-out: GI
SK-MEL-28 = assay: Growth inhibition of human SK-MEL-28 cells at 10^-5 M incubated for 48 hrs by sulforhodamine B assay; details: SK-MEL-28, 48 h, read-out: GI
T47D = assay: Growth inhibition of human T47D cells at 10^-5 M incubated for 48 hrs by sulforhodamine B assay; details: read-out: GI
OVCAR-5 = assay: Growth inhibition of human OVCAR5 cells at 10^-5 M incubated for 48 hrs by sulforhodamine B assay; details: OVCAR-5, 48 h, read-out: GI
KM12 = assay: Growth inhibition of human KM12 cells at 10^-5 M incubated for 48 hrs by sulforhodamine B assay; details: KM12, 48 h, read-out: GI
NCI-H226 = assay: Growth inhibition of human NCI-H226 cells at 10^-5 M incubated for 48 hrs by sulforhodamine B assay; details: NCI-H226, 48 h, read-out: GI

| SMILES | inhibition of growth at 10 µM (SW-620) | inhibition of growth at 10 µM (NCI-H460) | inhibition of growth at 10 µM (HOP-62) | inhibition of growth at 10 µM (CAKI-1) | inhibition of growth at 10 µM (TK-10) | inhibition of growth at 10 µM (MOLT-4) | inhibition of growth at 10 µM (SF-295) | inhibition of growth at 10 µM (IGROV-1) | inhibition of growth at 10 µM (SK-OV-3) | inhibition of growth at 10 µM (A549) | inhibition of growth at 10 µM (HCT-116) | inhibition of growth at 10 µM (SR) | inhibition of growth at 10 µM (HCT-15) | inhibition of growth at 10 µM (SK-MEL-5) | inhibition of growth at 10 µM (DU-145) | inhibition of growth at 10 µM (RXF 393) | inhibition of growth at 10 µM (U-251) | inhibition of growth at 10 µM (UACC-62) | inhibition of growth at 10 µM (LOX IMVI) | inhibition of growth at 10 µM (UACC-257) | further results |
| --- | --- | --- | --- | --- | --- | --- | --- | --- | --- | --- | --- | --- | --- | --- | --- | --- | --- | --- | --- | --- | --- |
| O=[N+]([O-])c1cccc(C2NC(=S)Nc3c2sc2ccc(Cl)cc32)c1 (stereo unspecified) | -0.61% | 11.4% | 21.8% | 22% | -6.1% | 9.49% | 5.63% | 27.5% | 10.5% | 2.45% | 13.4% | 20.3% | -0.11% | 4.44% | -8.3% | -9.88% | 4.4% | 8.94% | 7.83% | -0.4% | inhibition of growth at 10 µM (HL-60(TB)): -2.41%; inhibition of growth at 10 µM (SNB-75): 24.4%; inhibition of growth at 10 µM (MDA-MB-435): -3.92%; inhibition of growth at 10 µM (HCC 2998): -13.8%; inhibition of growth at 10 µM (786-0): 1.48%; inhibition of growth at 10 µM (SF-539): 5.63%; inhibition of growth at 10 µM (Hs-578T): 11.4%; inhibition of growth at 10 µM (HOP-92): 6.43%; inhibition of growth at 10 µM (EKVX): 26.5%; inhibition of growth at 10 µM (COLO 205): -3.44%; inhibition of growth at 10 µM (M14): 2.86%; inhibition of growth at 10 µM (OVCAR-8): 4.42%; inhibition of growth at 10 µM (MDA-MB-231): 23.7%; inhibition of growth at 10 µM (SK-MEL-28): -8.2%; inhibition of growth at 10 µM (T47D): 30.9%; inhibition of growth at 10 µM (OVCAR-5): 0.45%; inhibition of growth at 10 µM (KM12): 1.91%; inhibition of growth at 10 µM (NCI-H226): 20.5% |
| O=C1CSC2=Nc3c(sc4ccc(Cl)cc34)C(c3ccc4ccccc4c3)N12 (stereo unspecified) | -3.91% | -1.49% | 6.69% | 27.5% | -19.4% | 13.7% | -4.03% | 10.4% | 10.3% | 4.93% | -7.67% | 15.4% | 1.72% | 2.92% | -8.09% | -5.09% | -7.94% | 15.7% | 9.15% | 1.52% | inhibition of growth at 10 µM (HL-60(TB)): -2.82%; inhibition of growth at 10 µM (SNB-75): 16.8%; inhibition of growth at 10 µM (MDA-MB-435): -5.65%; inhibition of growth at 10 µM (HCC 2998): -30.1%; inhibition of growth at 10 µM (786-0): 2.84%; inhibition of growth at 10 µM (SF-539): -2.59%; inhibition of growth at 10 µM (Hs-578T): -0.18%; inhibition of growth at 10 µM (HOP-92): 6.48%; inhibition of growth at 10 µM (EKVX): 7.05%; inhibition of growth at 10 µM (COLO 205): -3.73%; inhibition of growth at 10 µM (M14): 6.91%; inhibition of growth at 10 µM (OVCAR-8): 3.28%; inhibition of growth at 10 µM (MDA-MB-231): 19.7%; inhibition of growth at 10 µM (SK-MEL-28): -15%; inhibition of growth at 10 µM (T47D): 15.7%; inhibition of growth at 10 µM (OVCAR-5): 1.49%; inhibition of growth at 10 µM (KM12): 3.7%; inhibition of growth at 10 µM (NCI-H226): 16.7% |
